Results taken from PubChem BioAssay (NCI).
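Interpolation was linear, between the two tested concentrations surrounding the appropriate level; five concentrations were tested over 48 hours in 96-well plates. Definition used: TGI = concentration required for complete inhibition of growth.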

How the values were obtained:
Assay in all cases: NCI tumour cell line growth inhibition, 48 h
[1] = test system: CAKI-1 renal
[2] = test system: SK-MEL-5 melanoma
[3] = test system: OVCAR-8 ovarian
[4] = test system: MDA-N
[5] = test system: SNB-19 CNS
[6] = test system: UACC-62 melanoma
[7] = test system: HCC-2998 colon
[8] = test system: MDA-MB-435
[9] = test system: HCT-116 colon
[10] = test system: OVCAR-5 ovarian
[11] = test system: ACHN renal
[12] = test system: 786-0 renal

Structure (SMILES)	TGI [1] [µM]	TGI [2] [µM]	TGI [3] [µM]	TGI [4] [µM]	TGI [5] [µM]	TGI [6] [µM]	TGI [7] [µM]	TGI [8] [µM]	TGI [9] [µM]	TGI [10] [µM]	TGI [11] [µM]	TGI [12] [µM]
CCC(C)C(NC(=O)C(CCCC[N+](=N)N)NC(=O)C(CCCC[N+](=N)N)NC(=O)c1ccc(OC)cc1)C(=O)NC(CCCC[N+](=N)N)C(=O)N1CCCC1C(=O)NC(CCCCN)C(=O)NC(CC(C)C)C(N)=O (stereo not drawn)	> 100	> 100	> 100	> 100	> 100	> 100	> 100	> 100	> 100	> 100	> 100	> 100
CCCCCc1cc(CCCC)sc1-c1ccco1	> 100	> 100	> 100	> 100	> 100	> 100	> 100	> 100	> 73	> 100	> 100	> 100
N#Cc1ccnc(C(=O)N2CCCC2C(=O)O)c1 (stereo not drawn)	> 100	> 100	> 100	> 100	> 100	> 100	> 100	> 100	> 100	> 100	> 100	> 100
Cc1nc2ccccc2n1Cc1ccc(NC(=S)Nc2ccccc2)cc1	> 100	56.6	> 100	> 100	> 100	> 100	> 100	> 100	> 100	> 100	> 100	> 100
O=C1CCCC2=C1CC1=C(CCCC1=O)N2c1ccc(-c2ccccc2)cc1	> 100	> 100	> 100	> 100	> 100	> 100	> 100	> 100	> 100	> 100	> 100	> 100
COC(=O)c1ccc2cc(O)ccc2c1	> 100	> 100	> 100	> 100	> 100	> 100	> 100	> 100	> 100	> 100	> 100	> 100
CC1=[N+]([O-])C2(CCCC2)N(O)C1(C)C	> 100	> 100	> 100	> 100	> 100	> 100	> 100	> 100	> 100	> 100	> 100	> 100
CC(C)(C)[Si](C)(C)OC1CCOC1(O)c1ccccn1 (stereo not drawn)	> 100	> 100	> 100	> 100	> 100	> 100	> 100	> 100	> 100	> 100	> 100	> 100
O=c1cccc2n1CC1CNCC2C1 (stereo not drawn)	> 100	> 100	> 100	> 100	> 100	> 100	> 100	> 100	> 100	> 100	> 100	> 100
C[N+]1(CCCCN2c3ccccc3Sc3cc(N=[N+]=[N-])ccc32)CCN(C(=O)CCNC(=O)Cc2ccc(C(=O)c3ccccc3)cc2)CC1	57.5	> 62.6	> 100	> 71.9	66.7	> 69.2	39.9	> 67.7	> 75.4	56.1	37.2	> 67.5
Cc1nn(C(=O)c2ccccc2O)c2c1C(c1ccc([N+](=O)[O-])cc1)SC(N)=N2 (stereo not drawn)	> 10	> 10	> 10	> 10	> 10	> 10	> 10	> 10	> 10	> 10	> 8.37	> 10
Brc1ccc2[nH]cc(-c3csc(-c4c[nH]c5ccc(Br)cc45)n3)c2c1	5.31	3.14	7.22	5.95	7.61	4.09	3.26	5.79	3.26	5.6	4.8	3.49
CC1=CC(O)CC(C)(C)C1/C=C/C(C)=C/C=C/C(C)=C/C=C/C=C(C)/C=C/C=C(C)/C=C/C1=C(C)CC(O)CC1(C)C (stereo not drawn)	51.4	32.7	39.5	37.8	> 100	29.8	> 100	33.9	30	78.4	31.1	36.7
CC1OC2OC3C(OCC(O)C3O)OC(=O)[C@]34CCC(C)(C)CC3C3=CCC5[C@@]6(C)C[C@H](O)[C@H](OC7OC(CO)C(O)C(O)C7OC7OC(COC(=O)CC(C)(O)CC(=O)OC1C(OC1OC(CO)C(O)C(O)C1O)C2O)C(O)C(O)C7O)[C@@](C)(CO)C6CC[C@@]5(C)[C@]3(C)CC4 (stereo partly drawn)	17.7	0.272	13.1	2.65	16	3.38	2.65	4.71	10.3	5.7	8.36	11.9
CO[C@H](C)[C@](O)(C(=O)OCC1=CCN2CC[C@@H](O)[C@H]12)C(C)C	> 100	> 100	> 100	> 100	> 100	> 100	> 100	> 100	> 100	> 100	> 100	> 100
Fc1cccc(F)c1C1SCc2nc3cc(Cl)ccc3n21 (stereo not drawn)	> 65.9	30.3	> 100	> 100	> 100	> 100	42.6	> 100	37	> 100	> 100	> 71.1
COC(=O)[C@@H]1[C@H]2CC[C@]3(C)[C@@H](OC(C)=O)CC[C@H]3[C@@H]2CC[C@H]1C1(C)SCCS1	> 100	21.4	70.6	47.3	> 100	> 100	86.2	35.3	46.3	50.8	> 100	62.5
O=C(O)C12C3C4(C(=O)O)C1C1(C(=O)O)C2C3(C(=O)O)C41 (stereo not drawn)	> 100	> 100	> 100	> 100	> 100	> 100	> 100	> 100	> 100	> 100	> 100	> 100
O=C1CCC(CCc2nc3ccccc3[nH]2)(c2ccccc2)C(=O)N1 (stereo not drawn)	> 100	> 100	> 100	> 100	> 100	> 100	> 100	> 100	> 100	> 100	> 100	> 100
CCOC(=O)OC1(c2ccccc2)CCN(C)CC1	> 100	> 100	> 100	> 100	> 100	> 100	> 100	> 100	> 100	> 100	> 100	> 100
C=CCN(c1cc(OC)c2[nH]c(C(=O)O)c(C)c2c1[N+](=O)[O-])S(C)(=O)=O	> 100	> 100	> 100	> 100	> 100	> 100	> 100	> 100	> 100	> 100	> 100	> 100
CC(C)(C)C#CI1OC(=O)c2ccccc21	7.21	15.5	23.3	23.4	22.9	13.8	23.6	18.4	6.82	21.9	8.42	11.5
Brc1ccc(/C(N=N/C(=N\Sc2ccccc2)c2ccc(Br)cc2)=N/Sc2ccccc2)cc1	> 100	> 100	> 100	> 100	> 100	> 100	> 100	> 100	> 100	> 100	> 100	> 100
O=C(O)Cn1c[n+](NC(=O)Cc2ccccc2)cn1	> 10	> 10	> 10	> 10	> 10	> 10	> 10	> 10	> 10	> 10	> 10	> 10
COC(=O)Cc1c2n(c3ccccc13)C(=O)N1c3ccccc3C(CC(=O)OC)C21 (stereo not drawn)	> 100	> 100	> 100	> 100	49.8	> 100	> 100	> 100	> 100	> 100	> 100	> 100
CC1CCc2sc3[nH]c(=S)n(C)c(=O)c3c2C1 (stereo not drawn)	> 100	> 100	> 100	> 100	> 100	> 100	82.5	> 100	> 100	> 100	> 100	> 100
Cc1ccc2nc(Nc3ccccc3C)c(Nc3ccccc3C)nc2c1	> 95.7	> 63.8	> 100	67.1	> 100	> 90.7	61.3	> 94.2	40.2	47.5	> 100	> 100
Cc1cccc2c(N)c3cccc(C(=O)NCC[N+](C)(C)[O-])c3nc12	> 100	> 100	36.6	42.7	> 100	26.8	24.5	41.5	> 100	27.6	77.9	> 100
O=C(O[C@@H](/C=C/c1ccccc1)P1(=O)N(Cc2ccccc2)[C@@H]2CCCC[C@H]2N1Cc1ccccc1)c1ccccc1	4.41	4.16	> 100	> 100	> 100	> 100	> 100	68.7	> 100	> 100	> 100	> 100
